Laboratory results taken from ChEMBL document CHEMBL5518235, “Identification of Novel Series of Potent and Selective Relaxin Family Peptide Receptor 1 (RXFP1) Agonists” (J Med Chem, 2024).
pEC50: −log10 of the molar value. Calls of active or inactive are those of the source. The calls are words filed in the database; no cut-off is given here.

Legend:
[1] = biological target: T1, Relaxin receptor 1 (Homo sapiens) (UniProt Q9HBX9); experiment: Agonist activity at human RXFP1 expressed in T-Rex-CHO-K1 cells assessed as stimulation of cAMP production by measuring maximal efficacy at 50 uM incubated for 45 mins by HTRF assay relative to control; format: functional, cell-based; conditions: filed as agonist
T1 sequence (whole entry): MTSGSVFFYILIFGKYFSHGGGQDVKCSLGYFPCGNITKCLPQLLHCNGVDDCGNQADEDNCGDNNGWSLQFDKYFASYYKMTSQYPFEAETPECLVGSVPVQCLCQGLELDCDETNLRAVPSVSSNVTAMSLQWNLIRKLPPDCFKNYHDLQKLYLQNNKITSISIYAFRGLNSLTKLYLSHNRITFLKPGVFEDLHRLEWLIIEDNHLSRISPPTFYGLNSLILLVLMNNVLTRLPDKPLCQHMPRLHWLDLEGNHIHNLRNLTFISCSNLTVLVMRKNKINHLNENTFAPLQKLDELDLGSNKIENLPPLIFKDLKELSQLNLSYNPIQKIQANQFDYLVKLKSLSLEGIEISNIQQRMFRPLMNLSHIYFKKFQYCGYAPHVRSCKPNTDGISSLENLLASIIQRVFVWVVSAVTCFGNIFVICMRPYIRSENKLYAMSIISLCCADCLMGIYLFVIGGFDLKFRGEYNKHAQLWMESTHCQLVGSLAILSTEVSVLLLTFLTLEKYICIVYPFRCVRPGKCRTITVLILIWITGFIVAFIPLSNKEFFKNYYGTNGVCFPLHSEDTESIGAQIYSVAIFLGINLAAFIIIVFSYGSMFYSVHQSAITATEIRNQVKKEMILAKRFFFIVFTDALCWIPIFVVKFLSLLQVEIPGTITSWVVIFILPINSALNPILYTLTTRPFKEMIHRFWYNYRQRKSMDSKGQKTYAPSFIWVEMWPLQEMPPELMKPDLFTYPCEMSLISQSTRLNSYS

[2] = biological target: T2, Relaxin receptor 1 (Rattus norvegicus) (UniProt Q6R6I6); experiment: Agonist activity at rat RXFP1 expressed in T-Rex-CHO-K1 cells assessed as stimulation of cAMP production at 40 uM incubated for 45 mins by HTRF assay; format: functional, cell-based
T2 sequence (whole entry): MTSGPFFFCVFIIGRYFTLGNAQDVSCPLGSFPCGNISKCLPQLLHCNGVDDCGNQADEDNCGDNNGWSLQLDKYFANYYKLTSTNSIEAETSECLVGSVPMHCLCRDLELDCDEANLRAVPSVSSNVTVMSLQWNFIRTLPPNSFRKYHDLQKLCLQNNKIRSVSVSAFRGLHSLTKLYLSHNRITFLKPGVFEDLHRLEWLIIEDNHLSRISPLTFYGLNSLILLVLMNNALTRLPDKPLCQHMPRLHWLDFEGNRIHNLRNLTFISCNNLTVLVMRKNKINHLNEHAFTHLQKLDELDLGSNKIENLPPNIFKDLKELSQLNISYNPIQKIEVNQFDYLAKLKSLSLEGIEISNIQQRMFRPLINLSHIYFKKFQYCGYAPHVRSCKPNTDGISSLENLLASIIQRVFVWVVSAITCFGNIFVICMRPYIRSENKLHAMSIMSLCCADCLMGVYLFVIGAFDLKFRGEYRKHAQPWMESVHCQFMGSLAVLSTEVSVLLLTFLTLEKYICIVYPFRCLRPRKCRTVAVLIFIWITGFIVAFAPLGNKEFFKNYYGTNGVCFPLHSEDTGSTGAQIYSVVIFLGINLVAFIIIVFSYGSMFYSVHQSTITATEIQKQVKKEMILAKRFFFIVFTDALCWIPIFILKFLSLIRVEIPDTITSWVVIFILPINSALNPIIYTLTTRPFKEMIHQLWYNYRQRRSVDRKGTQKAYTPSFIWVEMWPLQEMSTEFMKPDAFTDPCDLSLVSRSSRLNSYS

[3] = Metabolic stability in human liver microsomes assessed as intrinsic clearance at 1 uM incubated for 30 mins in presence of NADPH by LC-MS/MS analysis; format: ADME, Microsome; conditions: for microsomal CLint at 1 µM: liver microsomes, read-out: CLH
[4] = Lipophilicity, logD of the compound in 1-octanol and phosphate buffer at pH 7.4 incubated for 3 hrs by shake flask method based LC/MS/MS analysis; format: physicochemical; conditions: for logD at 3 h: 1-octanol/phosphate buffer, pH 7.4
Relaxin receptor 1 = biological target: T3, Relaxin receptor 1 (Homo sapiens, UniProt Q9HBX9); experiment: (§1) Agonist activity at human RXFP1 expressed in T-Rex-CHO-K1 cells assessed as stimulation of cAMP production incubated for 45 mins by HTRF assay; format: functional, cell-based
T3 sequence (Q9HBX9 whole entry): T1 sequence (whole entry)

[5] = Metabolic stability in cryopreserved human hepatocytes assessed as unbound intrinsic clearance measured per 10^6 cells at 1 uM measured after 120 mins by LC-MS/MS analysis; format: ADME, cell-based, Hepatocyte; conditions: 2 h
[6] = Metabolic stability in human liver microsomes assessed as unbound intrinsic clearance at 1 uM incubated for 30 mins in presence of NADPH by LC-MS/MS analysis; format: ADME, Microsome; conditions: 0.5 h
[7] = Metabolic stability in cryopreserved human hepatocytes assessed as intrinsic clearance measured per 10^6 cells at 1 uM after 120 mins by LC-MS/MS analysis; format: ADME, cell-based, Hepatocyte; conditions: cryopreserved hepatocytes, read-out: CLH
[8] = biological target: T1, Relaxin receptor 1 (Homo sapiens); experiment: as §1; format: functional, cell-based

Emax [1] [%] | Activity [2] | microsomal CLint at 1 µM [3] [µL/min/mg] | logD at 3 h [4] | pEC50 (Relaxin receptor 1) | CL free [5] | CL free [6] | hepatocyte CLint at 1 µM [7] [µL/min/1e6 cells] | CLH ([3]; microsomes, 0.5 h, 1 µM) [µL/min/mg] | logD ([4]; octanol/water, pH 7.4, 3 h, 3 h) | Activity [8] | Structure (SMILES)
92 | inactive |  |  |  |  |  |  |  |  |  | COc1cc(F)c(-c2ccc(C(=O)O)cc2)cc1C(=O)N[C@H]1[C@@H](C(=O)Nc2cccc(S(=O)(=O)C(F)(F)F)c2)[C@@H]2C=C[C@H]1C2 (racemic)
108 |  | 44 | 4.4 | 5.60 | 1.8 10^3uL/min | > 29 10^3uL/min/mg | 8.9 |  |  |  | COc1ccccc1C(=O)N[C@H]1[C@@H](C(=O)Nc2cccc(S(=O)(=O)C(F)(F)F)c2)[C@@H]2C=C[C@H]1C2
153 |  | 12 | > 4 | 5.50 | 0.96 10^3uL/min | 3.7 10^3uL/min/mg | 6.7 |  |  |  | COc1ccccc1C(=O)Nc1ccccc1C(=O)Nc1cccc(S(=O)(=O)C(F)(F)F)c1
 |  |  |  | 6.80 | 334 µL/min | 100 µL/min/mg | 11.7 | 7.2 | 3.8 |  | COc1cc(F)c(-c2ccc(C(=O)O)cc2)cc1C(=O)N[C@H]1[C@@H](C(=O)Nc2cccc(S(=O)(=O)C(F)(F)F)c2)[C@@H]2C=C[C@H]1C2
 |  | 173 | 3.5 |  |  | 0.98 10^3uL/min/mg |  |  |  | inactive | COc1ccccc1C(=O)N[C@H]1CN(C)C[C@H]1C(=O)Nc1cccc(S(=O)(=O)C(F)(F)F)c1 (racemic)
115 |  | < 3 | > 3.9 | 6.70 | 3.9 10^3uL/min | < 333 µL/min/mg | 11 |  |  |  | COc1cc(F)c(-c2ccc(C(=O)O)cc2)cc1C(=O)Nc1ccccc1C(=O)Nc1cccc(S(=O)(=O)C(F)(F)F)c1
74 |  | 174 | 4.9 | < 4.30 |  | 2.4 10^3uL/min/mg |  |  |  |  | COc1ccccc1C(=O)N[C@@H]1CCC[C@@H]1C(=O)Nc1cccc(S(=O)(=O)C(F)(F)F)c1 (racemic)
109 |  | 74 | > 3.7 | 6.60 | 7.8 10^3uL/min | 92000 µL/min/mg | 18 |  |  |  | COc1cc(F)c(-c2ccc(S(N)(=O)=O)cc2)cc1C(=O)N[C@@H]1[C@H]2CC[C@H](C2)[C@@H]1C(=O)Nc1cccc(S(=O)(=O)C(F)(F)F)c1
103 |  | < 3 | 3.7 | 6.80 | 277 µL/min | < 64 µL/min/mg | 5.4 |  |  |  | COc1cc(F)c(-c2cccc(C(=O)O)c2)cc1C(=O)N[C@H]1[C@@H](C(=O)Nc2cccc(S(=O)(=O)C(F)(F)F)c2)[C@@H]2C=C[C@H]1C2
87 |  | > 300 | 4.7 | 5.76 |  | > 38 10^3uL/min/mg |  |  |  |  | COc1ccc(-c2cccnc2)cc1C(=O)N[C@@H]1[C@H](C(=O)Nc2cccc(S(=O)(=O)C(F)(F)F)c2)[C@H]2C=C[C@@H]1C2 (racemic)
100 |  | 300 | 4.9 | 5.50 |  | 12 10^3uL/min/mg |  |  |  |  | COc1ccccc1C(=O)N[C@@H]1[C@H](C(=O)Nc2cccc(S(=O)(=O)C(F)(F)F)c2)[C@H]2C=C[C@@H]1C2 (racemic)
103 |  | 16 | 3.6 | 6.80 | 1.3 10^3uL/min | 314 µL/min/mg | 32 |  |  |  | COc1cc(F)c(-c2ccc(C(=O)O)cc2)cc1C(=O)N[C@@H]1[C@H]2CC[C@H](C2)[C@@H]1C(=O)Nc1cccc(S(=O)(=O)C(F)(F)F)c1
109 |  | > 300 | > 4.2 | 6.10 |  | > 25 10^3uL/min/mg |  |  |  |  | COc1cc(F)c(F)cc1C(=O)N[C@@H]1[C@H](C(=O)Nc2cccc(S(=O)(=O)C(F)(F)F)c2)[C@H]2C=C[C@@H]1C2 (racemic)
 |  | 242 | 4.4 |  |  | 6.3 10^3uL/min/mg |  |  |  | inactive | COc1ccccc1C(=O)N[C@@H]1CCCC[C@@H]1C(=O)Nc1cccc(S(=O)(=O)C(F)(F)F)c1 (racemic)
 |  | 9.9 | 3.8 |  | 484 µL/min | 150 µL/min/mg | 9.2 |  |  | inactive | COc1cc(F)c(-c2ccc(C(=O)O)cc2)cc1C(=O)N[C@@H]1[C@H](C(=O)Nc2cccc(S(=O)(=O)C(F)(F)F)c2)[C@H]2C=C[C@@H]1C2
110 |  | 4.6 | 3.2 | 7.10 | 295 µL/min | 111 µL/min/mg | 6.5 |  |  |  | COc1cc(F)c(-c2ccc(CC(=O)O)cc2)cc1C(=O)N[C@H]1[C@@H](C(=O)Nc2cccc(S(=O)(=O)C(F)(F)F)c2)[C@@H]2C=C[C@H]1C2 (racemic)
93 |  | 110 | > 3.9 | 6.04 |  | 92 10^3uL/min/mg |  |  |  |  | COc1cc(F)c(-c2ccccc2)cc1C(=O)N[C@@H]1[C@H](C(=O)Nc2cccc(S(=O)(=O)C(F)(F)F)c2)[C@H]2C=C[C@@H]1C2 (racemic)
